# Data reported in patent publication US11945806B2, “Stabilization of amyloidogenic immunoglobulin light chains” (The Scripps Research Institute, priority 2019, dated 2024).
# How the values were obtained:
# 5J8 Fab (LC:HC dimer) = assay: Binding of 1 by fluorescence; design: species or system human; details: 1 at 1 μM
# LCs with C214S mutation = assay: Fluorogenic coumarin titration, C214S LCs; type: binding, human; details: 1 at 1 μM
# Experimental: (§1) Fluorogenic coumarin titration. LCs were concentrated to 200 μM in centrifugal concentrators with a 10 kDa membrane, unless the available material was limiting. […] Fluorescence of 1 was measured on a Gemini plate reader (Molecular Devices) using an excitation wavelength of 373 nm and emission wavelength of 445 nm. Data were normalized platewise to the plateau fluorescence value for WIL-FL to calculate the fraction of 1 bound.
# (§2) A successful kinetic stabilizer should, but is not required to, bind to and stabilize patient LCs with a vast range of sequences (30, 31). To ask whether 1 can stabilize other FL LC sequences, we measured binding of 1 to three more recombinant λ6-57 FL LC disulfide-linked dimers: JTO-FL; ALMC2-FL, an AL-associated LC sequence derived from the ALMC2 cell line (32); and the germline sequence 6aJL2-FL.
# WIL-FL C214S = assay: Thioflavin T aggregation kinetics; type: biochemical, human; details: thioflavin T fluorescence
# Experimental: Aggregation. WIL C214S was dialyzed into ddH2O and filtered. Each 1 ml reaction contained 10 μM LC, ddH2O, 1% DMSO or 200 μM 1 in 1% DMSO, 150 mM NaCl, and ABC buffer (20 mM sodium acetate, 20 mM boric acid, 20 mM sodium citrate, pH 5 with HCl). Components are listed in the order they were added.
# Thioflavin T (ThT)-containing aggregation reactions were set up in 96-well plates with similar conditions used for the reactions described above, except each 100 μl reaction also contained 2 μM ThT. Aggregation was induced with shaking as previously described (4). In total, 21 replicates for both vehicle and 1, over four independent experiments (plates) were performed.
# WIL-FL C214S aggregates upon vigorous stirring at or below pH 5 to form heterogenous aggregate structures. […] This may be because a given LC can stochastically form different aggregate structures with different kinetics.
# WIL-FL [1] = target: T1, WIL-FL (Homo sapiens, UniProt P01721); assay: Equilibrium unfolding, urea titration; type: biochemical; details: 1 at 100 μM or 5 at 50 μM, WIL-FL 5 μM; 1.4 M without ligand
# Experimental: Equilibrium unfolding. WIL-FL (5 μM) was titrated against urea in 50 mM sodium phosphate buffer, pH 7.0, containing 50 μM 5 or 100 μM 1. After incubation overnight at 25° C., intrinsic tryptophan fluorescence emission spectra were measured using a Jasco 8600 fluorimeter (μex=280 nm, μem=300-420 nm). Average wavelength (also known as center of spectral mass) values were calculated using the equation: […]
# λi and Ii are the are the wavelength and intensity at i, respectively. Average wavelength data were normalized for comparison. […] Midpoint urea concentrations were calculated by fitting the titration data to a 2-state unfolding equation: […]
# x is the urea concentration (M), G is the free energy of unfolding (kJ mol^−1), m is the denaturant dependence of the unfolding reaction (kJ mol^−1 M^−1), R is the ideal gas constant, T is the temperature in K, a and c are the fluorescence of the folded and unfolded states, and b and d are the denaturant dependence of the fluorescence of the folded and unfolded states, respectively.
# [2] = test system: isolated V-domains from WIL, ALMC2 and 6aJL2; assay: Fluorogenic coumarin titration, isolated V-domains; type: binding, human; details: 1 at 1 μM
# Experimental: as §1, §2
# [3] = test system: κ1-33 LCs (AL12-FL, κ I O18/O8-FL); assay: Fluorogenic coumarin titration, κ1-33 LCs; type: binding, human; details: 1 at 1 μM
# Experimental: as §1
# Of the two classes of human LCs, λ and κ, λ LCs are more commonly observed in AL, but a fraction of patients secrete κ1-33 LCs (12, 33). […] Recombinant expression of these κ1-33 LCs using a similar protocol to that used for λ6-57 LCs yielded both monomeric and dimeric LCs, as shown by SV-AUC (SI Appendix FIG. S7). […] Binding of an excess of κ1-33 LCs (20 μM) to 1 (1 μM) afforded FL LC•1 fluorescence (FIG. 2f, inset).
# JTO-V = JTO-V (Homo sapiens, UniProt P01721); assay: NMR native-state hydrogen-deuterium exchange; type: biochemical; details: 1 at 500 μM
# Experimental: (§3) Native-state hydrogen exchange experiments were measured for WIL-V at 0.2 mM and JTO-V at 0.1 mM with or without 0.5 mM 1. […] Per-residue exchange rates k, were converted to free energies using the equation where krc are the residue-specific exchange rates of unprotected amides (18):
# (§4) To verify that binding of 1 reduces LC unfolding under non-denaturing conditions, we measured residue-specific hydrogen-deuterium exchange rates by NMR of WIL-V and JTO-V (100 μM) in the absence of or with 1 (500 μM). These rates (the decrease in intensity of the HSQC peak associated with each amide) are converted to free energies that report on each amide's folding equilibrium by normalizing for the published exchange rates of amides in unstructured peptides.
# WIL-V = WIL-V (Homo sapiens, UniProt P01721); assay: NMR native-state hydrogen-deuterium exchange; type: biochemical; details: 1 at 500 μM
# Experimental: as §3, §4
# WIL-FL* = assay: FP artefact counterscreen (compounds added after 24 h of proteinase K treatment); type: biochemical, human; details: compound added after 24 h PK treatment; mean ± sd, n=3
# Experimental: Secondly, to remove compounds that interfere with the FP measurement, the primary screen was repeated in triplicate but compounds were added after 24 h of proteinase K treatment (FIG. 1f). […] Bona fide hits should retain no FP beyond the low control.
# WIL-FL [4] = target: T1, WIL-FL; assay: PK proteolysis of unlabeled WIL-FL by SDS-PAGE; details: WIL-FL 10 μM, small molecule 100 μM, t=2 h
# Experimental: The experiment in FIG. 1b measured simultaneous proteolysis of labeled and unlabeled LC by adding 20 nM WIL-FL* or JTO-FL* to 5 μM WIL-FL or JTO-FL, respectively. Fluorescein fluorescence images of the SDS-PAGE gels were recorded, after which the gels were Coomassie stained and imaged.
# [5] = test system: WIL-FL and JTO-FL with residue 46 mutated to leucine; assay: Fluorogenic coumarin titration, residue 46 to leucine variants; type: binding, human
# Description: The residues used by JTO to bind 1 are highly conserved (FIG. 3d). Residues Y36, P44, Y87 and F98 are present in 88, 99, 95 and 100% of all human germline LC genes, respectively, whereas T46 is only present in two functional germline genes.
# [6] = test system: WIL-FL and JTO-FL variants with F98D mutation; assay: Fluorogenic coumarin titration, F98D variants; type: binding, human; details: 1 at 1 μM; presence or absence of the C214 inter-chain disulfide bond
# Experimental: as §1
# To further test the hypothesis that 1 binds at the interface between the V-domains, we measured binding of 1 to WIL-FL and JTO-FL variants with mutations designed to disrupt the dimer (22). The F98D mutation, which disrupts the V-domain-V-domain interface, rendered binding of 1 (1 μM) undetectable in the presence or absence of the C214 inter-chain disulfide bond (FIG. 2d, right panel).
# isolated λ3 C-domain = target: T2, isolated λ3 C-domain (Homo sapiens, UniProt P0DOY3); assay: Fluorogenic coumarin titration; type: binding; details: 1 at 1 μM
# T2 construct: made in house; host or cells: E. coli
smiles,measurement,setting,value
"CCN(CC)c1ccc2c(C)cc(=O)oc2c1 [Compound 1, 7-diethylamino-4-methylcoumarin]",binding to 1 as measured by fluorescence,5J8 Fab (LC:HC dimer),no apparent binding
same,affinity of LCs for 1,LCs with C214S mutation,reduces the affinity
same,rate of aggregation versus vehicle control,WIL-FL C214S,decreases the rate of aggregation significantly
same,midpoint concentration of urea required to unfold the FL LC,WIL-FL [1],2.0 M
same,affinity for 1,[2],reduced affinity
same,binding of 1,[3],weaker than binding to λ6-57 LCs
same,average stabilization (free energy from exchange rates),JTO-V,0.6 kcal/mol
same,average stabilization (free energy from exchange rates),WIL-V,0.6 kcal/mol
same,Counterscreen activity (%),WIL-FL*,−8.07 ± 3.3%
same,protection of WIL-FL against PK proteolysis,WIL-FL [4],protects this FL LC against PK proteolysis
same,binding affinity of 1,[5],slightly enhances the binding affinity
same,binding of 1,[6],undetectable
same,binding of 1,isolated λ3 C-domain,No binding
